The source of these data is PMC8232621, “Antimicrobial Activity of a Library of Thioxanthones and Their Potential as Efflux Pump Inhibitors” (Pharmaceuticals, 2021).

Several values for one entry are separate records, joined by “and”; a condition that tells them apart may be missing. Identical values can stand only once.

The subject of series [1] is SE03. In words: Real-time ethidium bromide accumulation assay (efflux pump inhibition). The conditions noted are these: compounds 50 µM (compound 12 at 17 µM), CCCP 25 µM, minute 60, EB 1 µg/mL. In kind it is cell-based, Salmonella enterica serovar Typhimurium SL1344. As for the experimental part:
(§1) The relative fluorescence index (RFI) was calculated based on the means of relative fluorescence units, and theses RFIs are depicted in Table 4.
(§2) The compounds were evaluated for their ability to inhibit the efflux of EB, an efflux pump substrate, in Salmonella enterica serovar Typhimurium SE03 and S. aureus 272123 strains, through real-time fluorimetry, monitoring the intracellular accumulation of EB, an efflux pump substrate. This was determined by the automated method using a CLARIOstar Plus plate reader (BMG Labtech, Ortenberg, Germany). Reserpine and CCCP were applied at 25 µM as positive controls, and the solvent DMSO was applied at 1% v/v. The bacterial strains were incubated in an appropriate culture media (TSB–S. aureus 272123; LB-B–SE03) at 37 °C until they reached an optical density (OD) of 0.6 at 600 nm. The culture was centrifuged at 13,000× g for 3 min, and the pellet was washed and resuspended with phosphate buffered saline (PBS, pH 7.4). The suspension was centrifuged again in the same conditions and resuspended in PBS.
(§3) Then, 50 µL of this solution were transferred into a 96-well black microtiter plate (Greiner Bio-One Hungary Kft, Mosonmagyaróvár, Fertősor, Hungary), and 50 µL of bacterial suspension (OD600 = 0.6) were added to each well. The plates were placed into the CLARIOstar plate reader, and the fluorescence was monitored at excitation and emission wavelengths of 530 nm and 600 nm, respectively, every minute for one hour on a real-time basis. From the real-time data, the activity of the compounds, namely the relative fluorescence index (RFI) of the last time point (minute 60) of the EB accumulation assay, was calculated according to the following equation:(1) RFI=RFtreated−RFuntreated/RFuntreated where RFtreated is the relative fluorescence (RF) at the last time point of EB accumulation curve in the presence of the compound, and RFuntreated is the RF at the last time point of the EB accumulation curve of the untreated control, having only the solvent (DMSO) control. The accumulation curves were designed using Microsoft Excel®. The samples were tested in triplicate, and the RFI presented comes from the average of these three values. The accumulation graphs present the mean of the RF at the last time point. The standard deviation (SD) was calculated automatically and included in the RF graphs.

The subject of series [2] is E. coli SA/2. Nature of the series: Synergy with cefotaxime (antibiotic MIC in presence of compound). Format: cell-based. The source says:
(§4) The referred library of thioxanthones was initially tested for their antimicrobial activity against six bacterial strains: the Gram-negative Escherichia coli ATCC 25922, Pseudomonas aeruginosa ATCC 27853 and Salmonella enterica serovar Typhimurium SL1344 (SE03), with the acrA gene deleted, and the Gram-positive Staphylococcus aureus ATCC 29213, Enterococcus faecalis ATCC 29212 and the methicillin and ofloxacin-resistant clinical isolate S. aureus 272123. For the synergy assay, two clinically relevant isolates were used: the extended-spectrum β-lactamase (ESBL)-producing E. coli SA/2 [23] and the vancomycin-resistant E. faecalis (VRE) B3/101 [23]. The antibiotics used were cefotaxime (CTX) and vancomycin (VAN), respectively.
The combined effect of the compounds and clinically relevant antimicrobial drugs was evaluated by determining the antibiotic’s MIC in the presence of each compound. […] The antibiotic tested was serially diluted, whereas the concentration of each compound was kept fixed. […]

Series [3] has as its system S. aureus 272123. In words: Antibacterial activity, broth microdilution MIC. Conditions: Staphylococcus aureus, 272123, read-out: Minimum Inhibitory Concentration (MIC). Format: cell-based.
Excerpt: as §4
(§5) The minimum inhibitory concentration (MIC) for each compound was determined by broth microdilution method in a 96-well plate according to the Clinical and Laboratory Standard Institute (CLSI) guidelines. The medium used was MHB II. The concentrations tested ranged from 100 µM to 0.195 µM and were prepared from a stock solution of 10 mM in DMSO, for S. aureus 272123 and SE03; for the other strains, the concentrations tested ranged from 64 µg/mL to 4 µg/mL and were prepared from a stock solution of 10 mg/mL in DMSO. DMSO was used in subinhibitory concentrations (1% v/v). The MIC was determined by visual inspection.
A general note: Broth dilution looks for growth in wells or tubes with falling amounts of substance.

In series [4] the test system is SE03. In words: Antibacterial activity, broth microdilution MIC. In kind it is cell-based, Salmonella enterica serovar Typhimurium SL1344. The conditions noted are these: Salmonella enterica, read-out: Minimum Inhibitory Concentration (MIC).
Excerpt: as §4, §5

Series [5] deals with S. aureus 272123. In words: Real-time ethidium bromide accumulation assay (efflux pump inhibition). In kind it is cell-based, Staphylococcus aureus. Conditions: compounds 50 µM, reserpine 25 µM, minute 60, EB 1 µg/mL. On the set-up: key: RFI = (RFtreated − RFuntreated)/RFuntreated at minute 60. As for the experimental part: as §1, §2, §3
In series [6] the test system is S. aureus ATCC 29213. Nature of the series: Inhibition of biofilm formation (crystal violet). Format: cell-based. The conditions noted are these: Staphylococcus aureus, ATCC29213, 48 h, S. aureus ATCC 29213, compounds 100 µM (compound 12 at 50 µM), read-out: Biofilm Inhibition (%) ± SD.
The subject of series [7] is S. aureus 272123. Nature of the series: Inhibition of biofilm formation (crystal violet). In kind it is cell-based, Staphylococcus aureus. The conditions noted are these: Staphylococcus aureus; S. aureus 272123; compounds 100 µM (compound 12 at 50 µM); 48 h; read-out: Biofilm Inhibition (%) ± SD. As for the experimental part:
Efflux mechanisms are one of the factors that can lead to biofilm-mediated resistance, along with slow growth and reduced penetration due to production of extracellular polysaccharides. […] Additionally, they can also modulate QS, through an influence in the transport of QS signal molecules. Thioxanthones 2–18 were tested for their potential for inhibiting biofilm formation by S. aureus ATCC 29213 and the multi-resistant S. aureus 272123. The biofilm inhibition, presented in percentage (%), was calculated based on the mean of absorbance units. Reserpine, which has previously been described as both an efflux pump inhibitor and an inhibitor of biofilm formation in Gram-positive bacteria was used as control in both strains.
The thioxanthone derivatives were tested for their ability to decrease the formation of biofilm. The bacterial strains used were the Gram-positive S. aureus […] and S. aureus 272123. The detection of the biofilm formation was carried out using the dye crystal violet (CV; 0.1% v/v). The initial inoculum was incubated in TSB overnight, and then diluted to an OD600 of 0.1. […] This meant that compound 12 was added at 50 µM, while the rest of the compounds were added at the concentration of 100 µM. The final volume in each well was 200 µL. Reserpine was used as a positive control, as it was the same compound used in the efflux pump inhibition assay and it has shown activity in the inhibition of biofilm formation in S. aureus strains. The plates were incubated at 30 °C for 48 h, with gentle stirring (100 rpm). After this incubation period, the TSB medium was discarded, and the plates were washed with tap water to remove unattached cells. Afterwards, 200 µL of a 0.1% v/v CV solution were added to the wells and incubated for 15 min at room temperature. Then, the CV solution was removed from the wells, and the plates were washed again with tap water, and 200 µL of a 70% ethanol solution was added to the wells. The biofilm formation was determined by measuring the OD600 using a Multiscan EX ELISA plate reader (Thermo Labsystems, Cheshire, WA, USA). The anti-biofilm effect of the compounds was expressed in the percentage (%) of decrease of biofilm formation.

Series [8] deals with S. marcescens. Nature of the series: Quorum sensing inhibition assay (pigment production). In kind it is cell-based, Serratia marcescens AS-1. The conditions noted are these: Serratia marcescens, read-out: Quorum Sensing Inhibition (mm) ± SD. As for the experimental part: (§6) Concerning the QS inhibition assay, the sensor strain Chromobacterium violaceum CV026 and the AHL producer strain Sphingomonas paucimobilis Ezf 10-17 (EZF) were inoculated as parallel lines, and the AHL producers Chromobacterium violaceum wild-type 85 (wt85) and Serratia marcescens AS-1 were inoculated as a single line. The interaction between the strains and compounds 2–18 was evaluated as the reduction of pigment production, in millimeters (mm) (Table 5) with promethazine (PMZ) as a positive control.
(§7) The QS inhibitory effect of the compounds was examined on the EZF and the sensor CV026 strains, on the wt85 strain, and on S. marcescens. The method used was the parallel inoculation method, where pair combinations of the used sensor strain CV026 and the N-acyl-homoserine lactone (AHL) producing strain EZF were inoculated directly onto the LB*-A agar surface in parallel, at an approximate distance of 5 mm from each other. S. marcescens AS-1 and wt85 were inoculated as a single line. Filter paper disks (7 mm in diameter) were placed on the center of the inoculated line(s) and impregnated with 8 µL of a solution of 10 mM of the compounds. […] The agar plates were incubated at room temperature (20 °C) for 24−48 h. The QS inhibition was accessed visually, through the inhibition of pigment production. The discolored, but intact, bacterial colonies were measured with a ruler.

For series [9], the system named is wt85. The series is described as above. In kind it is cell-based, Chromobacterium violaceum wild-type 85. The conditions noted are these: Chromobacterium violaceum, read-out: Quorum Sensing Inhibition (mm) ± SD. As for the experimental part: as §6, §7
The subject of series [10] is EZF + CV026. In words: Quorum sensing inhibition assay (pigment production), parallel inoculation. In kind it is cell-based. The conditions noted are these: disk with 8 µL of 10 mM solution, read-out: Quorum Sensing Inhibition (mm) ± SD. As for the experimental part: as §6, §7
Series [11] in a line: Cytotoxicity in NIH/3T3 cell line (MTT assay). Conditions: mouse, NIH/3T3 mouse fibroblast cells, read-out: IC50 (µM) ± SD, cytotoxicity. In kind it is cell-based. As to the method: Before each cytotoxicity assay using this cell line, cells were seeded in untreated 96-well flat-bottom microtiter plates, following a 4-hour incubation period in a humidified atmosphere (5% CO2, 95% air) at 37 °C [47]. […] Prior to the assay, the cells were seeded for 4 h using 1 × 10^4 cells/well. […] The plates were incubated for 24 h, after which a solution of MTT in PBS was added to each well and incubated for another 4 h. After this, 100 μL of SDS (10% in a 0.01 M HCl solution) was added to each well and incubated overnight at 37 °C. Doxorubicin was used as a positive control. Cell growth was determined in quadruplicate by measuring OD at λ = 540 nm (reference 630 nm) in a Multiscan EX ELISA reader (Thermo Labsystems, Cheshire, WA, USA). […] (2) 100−ODsample−ODmedium control/ODcell control−ODmedium control×100 […]

With `N#CC(C#N)=NNc1cccc(Cl)c1` [CCCP, carbonyl cyanide 3-chlorophenylhydrazone, reference compound], the “RFI ± SD” value in series [1] is on record as 0.23 ± 0.04.
In the case of `CO/N=C(\C(=O)N[C@@H]1C(=O)N2C(C(=O)O)=C(COC(C)=O)CS[C@H]12)c1csc(N)n1` [CTX, cefotaxime, reference compound], in series [2], the “CTX MIC (antibiotic alone)” value is 1124 µM and 512 µg/mL.
What is called inhibition is the change of the read-out against control, counted positive when it falls. Consider `CCCOc1ccc(OC)c2c(=O)c3ccccc3sc12` [Compound 4], for which the MIC in series [3] and in [4] was above 100 µM each time. For the same compound, the “RFI ± SD” value in series [5] was 0.11 ± 0.26; in series [1] it was −0.10 ± 0.05. The results for the inhibition at 100 µM in series [6] and in series [7] were 0.17 ± 0.83% and 47.9 ± 1.08%, respectively. In addition, the zone of inhibition at 10000 µM in [8], in [9] and in [10] was 0 mm each time.
On to `CCCOc1ccc(NCCc2nc3ccccc3[nH]2)c2c(=O)c3ccccc3sc12` [Compound 5], for which the MIC in [3] and in series [4] was above 100 µM each time. The “RFI ± SD” value in [5] was −0.13 ± 0.04; in series [1], −0.20 ± 0.01. For the same compound, the figures for the inhibition at 100 µM in [6] and in series [7] were 0.37 ± 0.47% and 0%, respectively. For the same compound, the zone of inhibition at 10000 µM in [8], in series [9] and in series [10] was 0 mm each time.
Take `CCCOc1ccc(NCCc2ccc([N+](=O)[O-])cc2)c2c(=O)c3ccccc3sc12` [Compound 6]: the MIC in [3] and in series [4] was above 100 µM in each case. Moreover, the entries for the “RFI ± SD” value in series [5] and in series [1] were 0.09 ± 0.11 and −0.20 ± 0.01, respectively. Besides, the inhibition at 100 µM in series [6] and in series [7] was 0% each time. Also, the zone of inhibition at 10000 µM in series [8], in [9] and in series [10] was 0 mm each time.
For `CCCOc1ccc(N2CCN(C(C)=O)CC2)c2c(=O)c3ccccc3sc12` [Compound 7], the MIC in series [3] and in series [4] was above 100 µM in each case. Further, the “RFI ± SD” value in [5] is given as −0.10 ± 0.02; in series [1] it was 0.49 ± 0.11. In addition, the inhibition at 100 µM in series [6] amounted to 0%; in series [7], 47.1 ± 7.54%. The zone of inhibition at 10000 µM in series [8] turned out to be 0 mm; in series [9], 0 mm; in [10] it was 30 ± 0.5 mm.
What is called IC50 is the concentration needed to halve the response being measured. Turning to `COc1cccc2c1C(=O)c1c(O)c3c(c(O)c1C2=O)C[C@@](O)(C(=O)CO)C[C@@H]3O[C@H]1C[C@H](N)[C@H](O)[C@H](C)O1` [Doxorubicin, doxorubicin, reference compound], the IC50 at 24 h in series [11] was 12.1 ± 0.81 µM.
In the case of `CC(CN1c2ccccc2Sc2ccccc21)N(C)C` (centres unmarked) [PMZ, promethazine, reference compound], the zone of inhibition at 10000 µM came out at 18 ± 0.8 mm in series [8], 40 ± 0.1 mm in series [9] and 41 ± 0.5 mm in [10].
`COC(=O)[C@H]1[C@H]2C[C@@H]3c4[nH]c5cc(OC)ccc5c4CCN3C[C@H]2C[C@@H](OC(=O)c2cc(OC)c(OC)c(OC)c2)[C@@H]1OC` [Reserpine, reserpine, reference compound]: the “RFI ± SD” value in [5] is 0.50 ± 0.04. In addition, the inhibition at 100 µM in [6] is 30.4%.
